Experimental data from patent US20160089410A1, “COMPOSITION FOR NOURISHING INJURED HUMAN TROPHOBLAST CELLS AND INHIBITING APOPTOSIS THEREIN” (priority 2014, published 2016).
Marks after values point to notes of the source that are not given here.

What was measured:
Assay type in all cases: cell-based, human
Caspase-9 = experiment: Western blot assay on Caspase-9 expression in trophoblastic cells; settings: mifepristone induced model, Blank = 1.000
Protocol: (§1) Hyperoside and asperosaponin are individual compounds isolated from herbal medicines cuscuta chinensis and taxillus sutchuenensis, respectively. Progesterone is a compound often used to prevent spontaneous abortion and was used in present invention as positive treatment control for comparison with of the novel composition of the present invention.
(§2) Extraction of total cellular protein and cytoplasmic protein: The cells 4×10^5 cells/ml were seeded in the 6-well plate. After incubating at 37° C., 5% CO2 for 44 hours, the cells are grouped and treated according to the experiment scheme (see above). Extraction conducted at two treatment points: 24-24 h (treat with agent for 24 hours and continue incubation for 24 hours after removing the agent) and 24-48 h (treat with agent for 24 hours and continue incubation for 48 hours after removing the agent). The assays were conducted as follows:
(§3) At each predetermined time point, discard the culture medium, wash the cells three times with cold PBS solution, 3 min each time. After removing PBS, put the cells on ice. Add lysis buffer, 150 μl per well, and then place the cells on ice for 5 min, scrape the surface cells and transfer the cell lysate to an EP tube. Put the tube on ice for 30 min. After centrifuge (4° C., 12000 rpm/min, 15 min), transfer the supernatant to the EP tube and store it at −20° C. Determine the protein concentration with the BCA method and adjust the protein concentration to the same level. Add 3 μl 5× SDS-PAGE sampling buffer, denature at 100° C. for 5 min, and store the samples at −20° C. for Western Blotting. The Western Blotting procedure was conducted in a standard manner known in the art, description of which is omitted herewith for the sake of brevity.

Bcl-2 mRNA/Bax mRNA = experiment: Quantitative PCR assay, Bcl-2 mRNA/Bax mRNA ratio; settings: ΔΔCt, mifepristone induced model, time point not given
Text: as §1
(§4) Design of primers: Based on search for the sequence of the target gene mRNA in GenBank, the following primers were designed: […]
(§5) Total RNA extraction: Cells 4×10^5 cells/ml were seeded in the 6-well plate, 1 ml per well, and incubated at 37° C., 5% CO2 for 48 h. Then, the cells were grouped and treated according to the experiment scheme (see above). Extraction was conducted at two time points: 24 h and 24-24 h (24 hours of agent treatment and 24 hours after removing the agent), according to the procedures described as follows:
(§6) Placed the cells in the 1.5 ml EP tube, add Trizol 1 ml, and mix by shaking. Add chloroform 0.2 ml, cover tightly, and shake vigorously for 15 s. Store it at 4° C. for 2-3 min, centrifugal at 4° C., 12000 rpm×15 min. Transfer the supernatant to a new 1.5 ml EP tube, add an equal volume of isopropanol, incubate at 4° C. for 10 min, and centrifuge 4° C., 12000 rpm×10 min. After discarding the supernatant, add 75% ethanol (containing DEPC water) to wash the precipitate once, centrifugal 4° C. 7500 rpm×5 min, and discard ethanol. Air or vacuum dry for 5-10 min (not completely dry), add DEPC water to dissolve RNA, store at −80° C. for further process.
(§7) Reverse transcription: In a sterile 0.2 ml centrifuge tubes, prepare the reaction according to the following:
(§8) Quantitative PCR:experimental design is in accordance with standard ΔΔCt analytical method. The experimental procedure is as follows:
(§9) (2) Prepare reaction mix (performed on ice):
(§10) (3) PCR reaction: using a standard three-step reaction procedure: […]

Caspase-3 mRNA = experiment: Quantitative PCR assay on Caspase-3 mRNA; settings: ΔΔCt, mifepristone induced model, time point not given
Text: as §1, §4, §5, §6, §7, §8, §9, §10

XIAP = experiment: Western blot assay on XIAP expression in trophoblastic cells; settings: mifepristone induced model, Blank = 1.000
Protocol: as §1, §2, §3

trophoblast cells [1] = experiment: MTT assay on cell proliferation in mifepristone induced trophoblast model; settings: Blank = 1.0000
Protocol: as §1
The trophoblast cells (adjust to 1.5×10^4/ml) were seeded in wells on a 96-well plate, […]. After incubating for 48 hours at 37° C., 5% CO2, the cells were grouped and treated accordingly (see above). Assays were conducted after treatment for 24 h and 48 h according to the following procedure:
Add 10 μl 1×MTT (3-(4,5-dimethylthiazol-2-yl)-2,5-diphenyltetrazolium bromide) to the well and continue incubation at 37° C., 5% CO2 for 4 hours to reduce MTT to formazan. Remove the supernatant from the well and add to each well 150 μl DMSO (dimethylsulfoxide) to dissolve formazan. After shaking the 96 plate for 10 min to make crystals completely dissolved, determine the OD value at 490 nm with a enzyme immunoassay analyzer. The determination was repeated three times.

BcI-2/Bax = experiment: Western blot assay on Bcl-2/Bax expression ratio in trophoblastic cells; settings: mifepristone induced model, Blank = 1.000
Protocol: Hyperoside and asperosaponin are individual compounds isolated from herbal medicines cuscuta chinensis and taxillus sutchuenensis, respectively.
as §2, §3

Caspase-9 mRNA = experiment: Quantitative PCR assay on Caspase-9 mRNA; settings: ΔΔCt, mifepristone induced model, time point not given
Text: as §1, §4, §5, §6, §7, §8, §9, §10

trophoblast cells [2] = experiment: Annexin V/PI flow cytometry assay on early stage apoptosis in Mifepristone-Trophoblast Cell Model; settings: comparative study, mifepristone induced model
Protocol: For example, the effect of apoptotic mRNA expressions in trophoblastic cells treated by mifepristone for 24 hours is shown in FIG. 3.
The experimental data on the cell proliferation rate, early apoptosis rate, Caspase-3 protein expression and cell supernatants HCG level expression were then subject to stepwise regression analysis, canonical correlation analysis and result optimization analysis. From these analyses, it is concluded that the preferred ratio among X1:X2:X3:X4:X5 is 0.9:0.00342:0.09037:0.0795:0. […] The number means the percentage of the cells underwent apoptosis.
as §1
The cells 4×10^5 cells/ml were seeded in the 6-well plate, 1 ml per well and incubated at 37° C., 5% CO2 for 48 h. Then, the cells were grouped and treated accordingly (see above). The assays were conducted as follows:
At the end of the predetermined treatment, the cells were digested and spun down(2000 rpm×5 min centrifugation). Discard the medium, wash the cells twice with cold PBS (resuspension and then 2000 rpm×5 min centrifugation). Remove the supernatant and resuspend the cell in 400 μl 1×Annexin V binding solution. Then, add 5 μl AnnexinV-EGFP staining solution to the cell suspension and mix gently. Incubate the cells at 2-8° C. in dark for 15 minutes. Add 10 μl PI (propidium iodide) and mix gently and incubate the cells in dark at 2-8° C. for 5 min. Detection by flow cytometry was conducted within one hour. The detection was repeated three times.

Bax = experiment: Western blot assay on Bax expression in trophoblastic cells; settings: mifepristone induced model, Blank = 1.000
Protocol: as §1, §2, §3

Caspase-3 = experiment: Western blot assay on Caspase-3 expression in trophoblastic cells; settings: mifepristone induced model, Blank = 1.000
Protocol: as §1, §2, §3

Bcl-2 mRNA = experiment: Quantitative PCR assay on Bcl-2 mRNA; settings: ΔΔCt, mifepristone induced model, time point not given
Text: as §1, §4, §5, §6, §7, §8, §9, §10

Bax mRNA = experiment: Quantitative PCR assay on Bax mRNA; settings: ΔΔCt, mifepristone induced model, time point not given
Text: as §1, §4, §5, §6, §7, §8, §9, §10

β-HCG = experiment: Radioimmunoassay on HCG expression in cell supernatant; settings: mifepristone induced model; duration of treatment 48 h
Protocol: as §1
The cells (4×10^5 cells/ml) were seeded in the 6-well plate, 1 ml per well, and incubated at 37° C., 5% CO2 for 48 hours. Then, the cells were grouped and treated accordingly (see above). After 48 hour treatment, cell supernatants were collected and sent to the Department of Nuclear Medicine, Guangzhou University of Traditional Chinese Medicine, for measuring HCG (human chorionic gonadotropin) via a routine radioimmunoassay procedure.

XIAP mRNA = experiment: Quantitative PCR assay on XIAP mRNA; settings: ΔΔCt, mifepristone induced model, time point not given
Text: as §1, §4, §5, §6, §7, §8, §9, §10

Row | Compound | Caspase-9 expression, relative amount of protein compared with Blank (Caspase-9; 24 h) | Caspase-9 expression, relative amount of protein compared with Blank (Caspase-9; 48 h) | Bcl-2 mRNA/BaxmRNA (Bcl-2 mRNA/Bax mRNA) | Caspase-3 mRNA level (Caspase-3 mRNA) | XIAP expression, relative amount of protein compared with Blank (XIAP; 24 h) | XIAP expression, relative amount of protein compared with Blank (XIAP; 48 h) | cell proliferation rate as compared to the Blank (MTT) (trophoblast cells [1]; duration of treatment 24 h) | cell proliferation rate as compared to the Blank (MTT) (trophoblast cells [1]; duration of treatment 48 h) | BcI-2/Bax expression ratio, relative ratio of the proteins compared with Blank (BcI-2/Bax; 24 h) | BcI-2/Bax expression ratio, relative ratio of the proteins compared with Blank (BcI-2/Bax; 48 h) | Caspase-9 mRNA level (Caspase-9 mRNA) | early stage apoptosis, percentage of cells underwent apoptosis (Annexin V FITC/PI) (trophoblast cells [2]; duration of treatment 24 h) | early stage apoptosis, percentage of cells underwent apoptosis (Annexin V FITC/PI) (trophoblast cells [2]; duration of treatment 48 h) | Bax expression, relative amount of protein compared with Blank (Bax; 24 h) | Bax expression, relative amount of protein compared with Blank (Bax; 48 h) | Caspase-3 expression, relative amount of protein compared with Blank (Caspase-3; 24 h) | Bcl-2 mRNA level (Bcl-2 mRNA) | BaxmRNA level (Bax mRNA) | β-HCG level in cell supernatant (β-HCG) | XIAPmRNA level (XIAP mRNA) | also measured
1 | CC1(C)CC[C@]2(C(=O)O[C@@H]3O[C@H](CO[C@@H]4O[C@H](CO)[C@@H](O)[C@H](O)[C@H]4O)[C@@H](O)[C@H](O)[C@H]3O)CC[C@]3(C)C(=CC[C@@H]4[C@@]5(C)CC[C@H](O[C@@H]6OC[C@H](O)[C@H](O)[C@H]6O)[C@@](C)(CO)[C@@H]5CC[C@]43C)[C@@H]2C1 [Asperosaponin, asperosaponin] | 1.962 ± 0.273^Δ | 1.887 ± 0.742 | 1.88 ± 1.196 | 2.783 ± 0.541 | 2.127 ± 0.421 | 1.706 ± 0.492 | 0.787 ± 0.086 | 0.809 ± 0.019 | 1.905 ± 0.297**^ΔΔ∇∇▴▴ | 1.503 ± 0.454 | 1.240 ± 0.945 | 16.067 ± 2.974 **^ΔΔ % | 15.933 ± 3.742 % | 1.503 ± 0.180^ΔΔ▾▾ | 1.804 ± 0.558 | 1.372 ± 0.338^Δ | 4.908 ± 3.037 | 3.181 ± 1.576 | 0.870 ± 0.026 MIU/ML | 1.253 ± 1.540 | Caspase-3 expression, relative amount of protein compared with Blank (Caspase-3; 48 h): 1.508 ± 0.217*^ΔΔ▴▴□
2 | O=c1c(O[C@@H]2O[C@H](CO)[C@H](O)[C@H](O)[C@H]2O)c(-c2ccc(O)c(O)c2)oc2cc(O)cc(O)c12 [Hyperoside, hyperoside] | 2.079 ± 0.267^Δ | 2.221 ± 0.651 | 1.470 ± 1.321 | 4.640 ± 1.865^Δ | 1.528 ± 0.317 | 1.673 ± 0.768 | 0.788 ± 0.072 | 0.869 ± 0.029 | 1.544 ± 0.726^ΔΔ∇∇ | 0.518 ± 0.186 | 3.512 ± 3.828 | 16.367 ± 1.942 **^ΔΔ % | 15.633 ± 2.136 % | 1.687 ± 0.519*^ΔΔ▴▴▾▾ | 2.544 ± 0.383 | 1.847 ± 0.123 | 2.726 ± 1.419 | 2.469 ± 1.058^Δ | 1.377 ± 0.142 MIU/ML | 1.315 ± 0.706 | Caspase-3 expression, relative amount of protein compared with Blank (Caspase-3; 48 h): 1.648 ± 0.206**^Δ▴
3 | CC(=O)[C@H]1CC[C@H]2[C@@H]3CCC4=CC(=O)CC[C@]4(C)[C@H]3CC[C@]12C [Positive Control, progesterone] |  |  | 7.351 ± 6.001 | 3.089 ± 1.778^ΔΔ |  |  | 0.805 ± 0.030 | 0.825 ± 0.061 | 0.537 ± 0.051 |  | 1.286 ± 0.780 | 17.400 ± 1.229 **^ΔΔ % | 16.367 ± 1.447 % |  |  |  | 2.971 ± 2.839 | 0.442 ± 0.442^ΔΔ | 1.067 ± 0.038*^Δ MIU/ML | 1.037 ± 0.425 | 
